We go through 19 compounds from patent publication US11034700B2, “Substituted pyrrolidine compound and use thereof” (Takeda Pharmaceutical Company Limited, priority 2017, dated 2021).

The target of the assay is T1, human OX2 receptor (Homo sapiens, UniProt O43614).
T1 construct: expressed in transfected cells
T1 sequence (O43614 1-444): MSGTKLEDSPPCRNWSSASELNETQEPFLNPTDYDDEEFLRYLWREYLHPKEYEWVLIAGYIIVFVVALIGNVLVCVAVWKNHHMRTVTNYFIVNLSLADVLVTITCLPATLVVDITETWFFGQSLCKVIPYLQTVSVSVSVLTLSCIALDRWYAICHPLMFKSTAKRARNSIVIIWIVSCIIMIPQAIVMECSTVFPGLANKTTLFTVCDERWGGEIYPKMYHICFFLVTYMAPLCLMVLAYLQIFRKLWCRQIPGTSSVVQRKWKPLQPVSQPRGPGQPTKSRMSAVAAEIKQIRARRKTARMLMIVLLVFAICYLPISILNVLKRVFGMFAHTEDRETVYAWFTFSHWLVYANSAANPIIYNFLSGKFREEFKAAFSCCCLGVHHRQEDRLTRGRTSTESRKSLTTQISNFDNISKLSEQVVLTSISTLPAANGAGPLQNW
Nature of the assay: Measurement of orexin type 2 receptor agonist activity (Fluo-4 calcium fluorescence, FDSS). The assay is classed as cell-based. The following applies: compound at 3 μM; CHO cells forcibly expressing human OX2 receptor; DMSO = 0%, orexin A (human) 10 nM = 100%. From the text:
Experimental Example 1: Obtainment of Cell Stably Expressing Human Orexin Type 2 Receptor (hOX2R)
To obtain a cell clone stably expressing human orexin type 2 receptor, human orexin type 2 receptor cDNA was inserted into pcDNA3.1(+) plasmid vector (Invitrogen), and a plasmid DNA for expression of human orexin type 2 receptor (pcDNA3.1(+)/hOX2R) was cloned. The plasmid DNA was introduced into CHO-dhfr cell by an electroporation method, and human orexin type 2 receptor expressing clone cells were obtained by limiting dilution method by using G418 drug resistance as a selection marker.
Experimental Example 2: Measurement of Orexin Type 2 Receptor Agonist Activity
CHO cells forcibly expressing human OX2 receptor were seeded in each well of 384 well black transparent bottom plate (BD Falcon) at 7,500 cells/well, and cultured for one day in a 5% CO2 incubator at 37° C. After removal of the medium in the cell plate, assay buffer A containing a calcium indicator (HESS (Life Technologies), 20 mM HEPES (Life Technologies), 0.1% BSA (Wako Pure Chemical Industries, Ltd.), 2.5 μg/mL Fluo-4 AM (DOJINDO Chemical), 0.08% Pluronic F127 (DOJINDO Chemical), 1.25 mM probenecid (DOJINDO Chemical)) was added at 30 μL/well. The plate was stood for 30 min in a 5% CO2 incubator at 37° C., and further stood at room temperature for 30 min. A test compound prepared by diluting with assay buffer B (HESS, 20 mM HEPES, 0.1% BSA) was added at 10 μL/well, and the fluorescence value was measured by FDSSμCELL (Hamamatsu Photonics K.K.) every one sec for 1 min, and thereafter every two sec for 1 min 40 sec. The activity (%) of the test compound was calculated assuming that variation in the fluorescence value when DMSO was added instead of the test compound was 0% […], and variation in the fluorescence value when orexin A (human) (PEPTIDE INSTITUTE, INC.) was added at the final concentration of 10 nM was 100% […]. The activity of each compound at the concentration of 3 μM was shown below.
As for `Cc1cccc(C)c1C(=O)N1CC[C@H](Oc2cccc(NS(=O)(=O)c3ccccc3Cl)c2)C1` [Example 37, 2-chloro-N-(3-(((3S)-1-(2,6-dimethylbenzoyl)pyrrolidin-3-yl)oxy)phenyl)benzenesulfonamide], the “OX2R agonist activity (3 μM, %)” value is given as 35%.
Take `Cc1cccc(C)c1C(=O)N1CC[C@H](Oc2cccc(NS(=O)(=O)c3sccc3Cl)c2)C1` [Example 38, 3-chloro-N-(3-(((3S)-1-(2,6-dimethylbenzoyl)pyrrolidin-3-yl)oxy)phenyl)thiophene-2-sulfonamide]: the “OX2R agonist activity (3 μM, %)” value was 44%.
`COc1ccc(N2CCCC3(CCCCO3)C2)cc1S(=O)(=O)Nc1cccc(O[C@H]2CCN(C(=O)c3c(C)cccc3C)C2)c1` (stereo partly drawn) [Example 41, N-(3-(((3S)-1-(2,6-dimethylbenzoyl)pyrrolidin-3-yl)oxy)phenyl)-2-methoxy-5-(1-oxa-8-azaspiro[5.5]undec-8-yl)benzenesulfonamide]: the “OX2R agonist activity (3 μM, %)” value was found to be 97%.
With `COc1ccc(N2CCCC(C(=O)N3CCCC3)C2)cc1S(=O)(=O)Nc1cccc(O[C@H]2CCN(C(=O)c3c(C)cccc3C)C2)c1` (stereo partly drawn) [Example 42, N-(3-(((3S)-1-(2,6-dimethylbenzoyl)pyrrolidin-3-yl)oxy)phenyl)-2-methoxy-5-(3-(pyrrolidin-1-ylcarbonyl)piperidin-1-yl)benzenesulfonamide] the figure was 97%; with `COc1ccc(-c2cccc(C(=O)N(C)C)c2)cc1S(=O)(=O)Nc1cccc(CC2CCN(C(=O)c3cc(C)ccc3C)C2)n1` (stereo not shown) [Example 45, 3′-((6-((1-(2,5-dimethylbenzoyl)pyrrolidin-3-yl)methyl)pyridin-2-yl)sulfamoyl)-4′-methoxy-N,N-dimethylbiphenyl-3-carboxamide], 92%; with `COc1ccc(-c2cccc(C(=O)N(C)C)c2)cc1S(=O)(=O)Nc1cc(OC2CCN(C(=O)c3cccc(C)c3)C2)ccn1` (stereo not shown) [Example 49, 4′-methoxy-N,N-dimethyl-3′-((4-((1-(3-methylbenzoyl)pyrrolidin-3-yl)oxy)pyridin-2-yl)sulfamoyl)biphenyl-3-carboxamide], 64%.
For `COc1ccc(-c2cccc(C(=O)N(C)C)c2)cc1S(=O)(=O)Nc1cccc(N(C)C2CCN(C(=O)c3cc(C)ccc3C)C2)c1` (stereo not shown) [Example 58, 3′-((3-((1-(2,5-dimethylbenzoyl)pyrrolidin-3-yl)(methyl)amino)phenyl)sulfamoyl)-4′-methoxy-N,N-dimethylbiphenyl-3-carboxamide] the value was 104%.
On to `COc1ccccc1S(=O)(=O)Nc1cccc(O[C@H]2CCN(C(=O)c3cc(C)ccc3C)C2)c1` [Example 62, N-(3-(((3S)-1-(2,5-dimethylbenzoyl)pyrrolidin-3-yl)oxy)phenyl)-2-methoxybenzenesulfonamide], for which the “OX2R agonist activity (3 μM, %)” value turned out to be 69%.
In the case of `COc1ccccc1S(=O)(=O)Nc1cccc(O[C@@H]2CN(C(=O)c3cc(C)ccc3C)C[C@H]2OC)c1` [Example 63, N-(3-(((3R,4R)-1-(2,5-dimethylbenzoyl)-4-methoxypyrrolidin-3-yl)oxy)phenyl)-2-methoxybenzenesulfonamide], the “OX2R agonist activity (3 μM, %)” value stood at 112%.
On to `COc1ccc(-c2cccc(C(=O)N(C)C)c2)cc1S(=O)(=O)Nc1cccc(O[C@H]2CCN(C(=O)c3c(C)cccc3C)C2)c1F` [Example 71, 3′-((3-(((3S)-1-(2,6-dimethylbenzoyl)pyrrolidin-3-yl)oxy)-2-fluorophenyl)sulfamoyl)-4′-methoxy-N,N-dimethylbiphenyl-3-carboxamide], for which the “OX2R agonist activity (3 μM, %)” value was 89%.
With `COc1ccc(-c2cccc(C(=O)N(C)C)c2)cc1S(=O)(=O)Nc1cc(O[C@H]2CCN(C(=O)c3c(C)cccc3C)C2)ccc1F` [Example 72, 3′-((5-(((3S)-1-(2,6-dimethylbenzoyl)pyrrolidin-3-yl)oxy)-2-fluorophenyl)sulfamoyl)-4′-methoxy-N,N-dimethylbiphenyl-3-carboxamide] the figure was 85%; with `COc1ccccc1S(=O)(=O)Nc1cccc(O[C@@H]2CN(C(=O)c3c(C)cccc3C)C[C@H]2OC)c1` [Example 74, N-(3-(((3R,4R)-1-(2,6-dimethylbenzoyl)-4-methoxypyrrolidin-3-yl)oxy)phenyl)-2-methoxybenzenesulfonamide], 104%.
Regarding `COc1ccccc1S(=O)(=O)Nc1cccc(O[C@@H]2CN(C(=O)C3(c4ccccc4)CC3)C[C@H]2OC)c1` [Example 76, 2-methoxy-N-(3-(((3R,4R)-4-methoxy-1-((1-phenylcyclopropyl)carbonyl)pyrrolidin-3-yl)oxy)phenyl)benzenesulfonamide], the “OX2R agonist activity (3 μM, %)” value stood at 79%.
Take `CCCS(=O)(=O)Nc1cccc(O[C@@H]2CN(C(=O)c3cc(C)ccc3C)C[C@H]2OC)c1` [Example 79, N-(3-(((3R,4R)-1-(2,5-dimethylbenzoyl)-4-methoxypyrrolidin-3-yl)oxy)phenyl)propane-1-sulfonamide]: the “OX2R agonist activity (3 μM, %)” value is recorded as 76%.
Regarding `CO[C@@H]1CN(C(=O)c2cc(C)ccc2C)C[C@H]1Oc1cccc(NS(=O)(=O)C2CCOCC2)c1` [Example 81, N-(3-(((3R,4R)-1-(2,5-dimethylbenzoyl)-4-methoxypyrrolidin-3-yl)oxy)phenyl)tetrahydro-2H-pyran-4-sulfonamide], the “OX2R agonist activity (3 μM, %)” value is listed as 92%.
With `CO[C@@H]1CN(C(=O)c2cc(C)ccc2C)C[C@H]1Oc1cccc(NS(=O)(=O)c2ccccc2F)c1` [Example 82, N-(3-(((3R,4R)-1-(2,5-dimethylbenzoyl)-4-methoxypyrrolidin-3-yl)oxy)phenyl)-2-fluorobenzenesulfonamide] the figure was 101%.
With `CO[C@@H]1CN(C(=O)c2cc(C)ccc2C)C[C@H]1Oc1cccc(NS(=O)(=O)c2sccc2Cl)c1` [Example 84, 3-chloro-N-(3-(((3R,4R)-1-(2,5-dimethylbenzoyl)-4-methoxypyrrolidin-3-yl)oxy)phenyl)thiophene-2-sulfonamide] the figure was 96%; with `COc1ccccc1S(=O)(=O)Nc1cccc(O[C@@H]2CN(C(=O)c3c(C)cccc3F)C[C@H]2OC)c1` [Example 96, N-(3-(((3R,4R)-1-(2-fluoro-6-methylbenzoyl)-4-methoxypyrrolidin-3-yl)oxy)phenyl)-2-methoxybenzenesulfonamide], 80%; with `COc1ccccc1S(=O)(=O)Nc1cccc(O[C@@H]2CN(C(=O)c3c(C)cccc3OC)C[C@H]2OC)c1` [Example 97, 2-methoxy-N-(3-(((3R,4R)-4-methoxy-1-(2-methoxy-6-methylbenzoyl)pyrrolidin-3-yl)oxy)phenyl)benzenesulfonamide], 93%.
